Laboratory results from patent US20260232767A1, “INTERLEUKIN-23 RECEPTOR ANTAGONIST PEPTIDES FOR USE IN THE TREATMENT OF PSORIASIS” (Janssen Pharmaceutica NV, priority 2023, published 2026).

Test system: subjects with moderate-to-severe plaque psoriasis
Assay: PASI response, Example 2 long-term extension to Week 52
Format: in vivo, human
Conditions: for Change from Baseline in PASI Total Score, LSMean: MMRM model; for Subjects achieving 100% Improvement at Week 52 (PASI) / Subjects achieving ≥75% Improvement at Week 52 (PASI 75 Response) / Subjects achieving ≥90% Improvement at Week 52 (PASI): non-responder imputation
Source text: Described below is a multicenter, long-term extension (LTE), double-blind, dose-ranging, parallel group interventional study in participants from Example 1 to evaluate the long-term efficacy and safety of the hydrochloride salt of the compound of Formula (I) for the treatment of moderate-to-severe plaque psoriasis. Patients from Example 1 continued to receive the same dose of the compound of Formula (I) for an additional 36-week treatment period with a 4-week safety follow up period after the last administration of the compound of Formula (I). Patients randomized to placebo in Example 1 received the compound of Formula (I) at a dose of 100 mg QD starting at Week 16 of Example 1 (FIG. 21).
The primary efficacy endpoint is the proportion of participants achieving a PASI 75 response at Week 52, defined as at least a […] reduction from baseline PASI of Example 1. For primary analysis, composite strategy (non-responder imputation) was applied to address intercurrent event #1 (Discontinuation of study intervention due to lack of efficacy or due to an AE of worsening of psoriasis) and […] (initiation of a protocol-prohibited medication or therapy that could improve psoriasis); treatment policy strategy (observed data) was applied to intercurrent event #3 (Discontinuation of study intervention due to other reasons). Participants with missing data after application of ICEs are considered as non-responders.
Since there was no control arm (after week 16), in this primary analysis, only the proportion of participants who achieved a PASI75 response and its […] confidence interval at Week 52 were summarized for each intervention group.

CC(=O)NCCCC[C@@H]1NC(=O)[C@H](Cc2c[nH]c3c(C)cccc23)NC(=O)[C@H]([C@@H](C)O)NC(=O)[C@H](CC(N)=O)NC(=O)[C@@H](NC(C)=O)C(C)(C)SSC(C)(C)[C@@H](C(=O)N[C@@H](Cc2ccc(OCCN)cc2)C(=O)N[C@@H](Cc2ccc3ccccc3c2)C(=O)NC2(C(=O)N[C@@H](CCC(=O)O)C(=O)N[C@@H](CC(N)=O)C(=O)N[C@@H](Cc3cccnc3)C(=O)N(C)CC(N)=O)CCOCC2)NC1=O [IL-23 receptor antagonist peptide, Ac-[Pen]*-N-T-[W(7-Me)]-[Lys(Ac)]-[Pen]*-Phe[4-(2-aminoethoxy)]-[2-Nal]-[THP]-E-N-[3-Pal]-Sarc-NH2 (*[Pen]-[Pen]* formdisulfidebond)]
Change from Baseline in PASI Total Score, Mean (25 mg BID, Week 1): −1.20
Change from Baseline in PASI Total Score, Median (25 mg BID, Week 1): −0.80
Change from Baseline in PASI Total Score, LSMean (25 mg BID, Week 1): −1.4
Change from Baseline in PASI Total Score, Mean (25 mg BID, Week 2): −3.65
Change from Baseline in PASI Total Score, Median (25 mg BID, Week 2): −3.20
Change from Baseline in PASI Total Score, LSMean (25 mg BID, Week 2): −3.8
Change from Baseline in PASI Total Score, Mean (25 mg BID, Week 4): −6.26
Change from Baseline in PASI Total Score, Median (25 mg BID, Week 4): −6.30
Change from Baseline in PASI Total Score, LSMean (25 mg BID, Week 4): −6.7
Change from Baseline in PASI Total Score, Mean (25 mg BID, Week 8): −9.72
Change from Baseline in PASI Total Score, Median (25 mg BID, Week 8): −9.90
Change from Baseline in PASI Total Score, LSMean (25 mg BID, Week 8): −10.2
Change from Baseline in PASI Total Score, Mean (25 mg BID, Week 12): −11.46
Change from Baseline in PASI Total Score, Median (25 mg BID, Week 12): −12.30
Change from Baseline in PASI Total Score, LSMean (25 mg BID, Week 12): −11.9
Change from Baseline in PASI Total Score, Mean (25 mg BID, Week 16): −12.73
Change from Baseline in PASI Total Score, Median (25 mg BID, Week 16): −12.70
Change from Baseline in PASI Total Score, LSMean (25 mg BID, Week 16): −13.0
Change from Baseline in PASI Total Score, Mean (25 mg BID, Week 20): −13.50
Change from Baseline in PASI Total Score, Median (25 mg BID, Week 20): −13.60
Change from Baseline in PASI Total Score, LSMean (25 mg BID, Week 20): −13.7
Change from Baseline in PASI Total Score, Mean (25 mg BID, Week 24): −13.64
Change from Baseline in PASI Total Score, Median (25 mg BID, Week 24): −13.55
Change from Baseline in PASI Total Score, LSMean (25 mg BID, Week 24): −13.5
Change from Baseline in PASI Total Score, Mean (25 mg BID, Week 28): −14.33
Change from Baseline in PASI Total Score, Median (25 mg BID, Week 28): −14.40
Change from Baseline in PASI Total Score, LSMean (25 mg BID, Week 28): −14.5
Change from Baseline in PASI Total Score, Mean (25 mg BID, Week 32): −14.36
Change from Baseline in PASI Total Score, Median (25 mg BID, Week 32): −14.30
Change from Baseline in PASI Total Score, LSMean (25 mg BID, Week 32): −14.6
Change from Baseline in PASI Total Score, Mean (25 mg BID, Week 40): −13.58
Change from Baseline in PASI Total Score, Median (25 mg BID, Week 40): −14.10
Change from Baseline in PASI Total Score, LSMean (25 mg BID, Week 40): −13.9
Change from Baseline in PASI Total Score, Mean (25 mg BID, Week 52): −13.24
Change from Baseline in PASI Total Score, Median (25 mg BID, Week 52): −13.75
Subjects achieving PASI 75 (25 mg BID, Week 52): 24 (28.5%)
Change from Baseline in PASI Total Score, LSMean (25 mg BID, Week 52): −13.6
Subjects achieving 100% Improvement at Week 52 (PASI) (25 mg BID, Week 52): (17.1%)
Subjects achieving ≥75% Improvement at Week 52 (PASI 75 Response) (25 mg BID, Week 52): 24 (58.5%)
Subjects achieving ≥90% Improvement at Week 52 (PASI) (25 mg BID, Week 52): (36.6%)
Change from Baseline in PASI Total Score, Mean (25 mg QD, Week 1): −2.25
Change from Baseline in PASI Total Score, Median (25 mg QD, Week 1): −0.80
Change from Baseline in PASI Total Score, LSMean (25 mg QD, Week 1): −2.4
Change from Baseline in PASI Total Score, Mean (25 mg QD, Week 2): −4.50
Change from Baseline in PASI Total Score, Median (25 mg QD, Week 2): −4.00
Change from Baseline in PASI Total Score, LSMean (25 mg QD, Week 2): −4.5
Change from Baseline in PASI Total Score, Mean (25 mg QD, Week 4): −6.50
Change from Baseline in PASI Total Score, Median (25 mg QD, Week 4): −5.60
Change from Baseline in PASI Total Score, LSMean (25 mg QD, Week 4): −6.7
Change from Baseline in PASI Total Score, Mean (25 mg QD, Week 8): −9.39
Change from Baseline in PASI Total Score, Median (25 mg QD, Week 8): −7.70
Change from Baseline in PASI Total Score, LSMean (25 mg QD, Week 8): −9.5
Change from Baseline in PASI Total Score, Mean (25 mg QD, Week 12): −10.71
Change from Baseline in PASI Total Score, Median (25 mg QD, Week 12): −9.20
Change from Baseline in PASI Total Score, LSMean (25 mg QD, Week 12): −10.8
Change from Baseline in PASI Total Score, Mean (25 mg QD, Week 16): −12.76
Change from Baseline in PASI Total Score, Median (25 mg QD, Week 16): −12.20
Change from Baseline in PASI Total Score, LSMean (25 mg QD, Week 16): −12.0
Change from Baseline in PASI Total Score, Mean (25 mg QD, Week 20): −14.01
Change from Baseline in PASI Total Score, Median (25 mg QD, Week 20): −13.70
Change from Baseline in PASI Total Score, LSMean (25 mg QD, Week 20): −13.2
Change from Baseline in PASI Total Score, Mean (25 mg QD, Week 24): −13.56
Change from Baseline in PASI Total Score, Median (25 mg QD, Week 24): −14.30
Change from Baseline in PASI Total Score, LSMean (25 mg QD, Week 24): −12.8
Change from Baseline in PASI Total Score, Mean (25 mg QD, Week 28): −13.35
Change from Baseline in PASI Total Score, Median (25 mg QD, Week 28): −14.60
Change from Baseline in PASI Total Score, LSMean (25 mg QD, Week 28): −13.3
Change from Baseline in PASI Total Score, Mean (25 mg QD, Week 32): −14.06
Change from Baseline in PASI Total Score, Median (25 mg QD, Week 32): −15.50
Change from Baseline in PASI Total Score, LSMean (25 mg QD, Week 32): −13.6
Change from Baseline in PASI Total Score, Mean (25 mg QD, Week 40): −13.70
Change from Baseline in PASI Total Score, Median (25 mg QD, Week 40): −15.25
Change from Baseline in PASI Total Score, LSMean (25 mg QD, Week 40): −13.1
Change from Baseline in PASI Total Score, Mean (25 mg QD, Week 52): −13.55
Change from Baseline in PASI Total Score, Median (25 mg QD, Week 52): −14.55
Subjects achieving PASI 75 (25 mg QD, Week 52): 21 (48.8%)
Change from Baseline in PASI Total Score, LSMean (25 mg QD, Week 52): −12.9
Subjects achieving 100% Improvement at Week 52 (PASI) (25 mg QD, Week 52): (14.0%)
Subjects achieving ≥75% Improvement at Week 52 (PASI 75 Response) (25 mg QD, Week 52): 21 (48.8%)
Subjects achieving ≥90% Improvement at Week 52 (PASI) (25 mg QD, Week 52): (27.9%)
Change from Baseline in PASI Total Score, Mean (50 mg QD, Week 1): −3.10
Change from Baseline in PASI Total Score, Median (50 mg QD, Week 1): −1.80
Change from Baseline in PASI Total Score, LSMean (50 mg QD, Week 1): −3.1
Change from Baseline in PASI Total Score, Mean (50 mg QD, Week 2): −5.74
Change from Baseline in PASI Total Score, Median (50 mg QD, Week 2): −4.30
Change from Baseline in PASI Total Score, LSMean (50 mg QD, Week 2): −5.7
Change from Baseline in PASI Total Score, Mean (50 mg QD, Week 4): −8.25
Change from Baseline in PASI Total Score, Median (50 mg QD, Week 4): −7.85
Change from Baseline in PASI Total Score, LSMean (50 mg QD, Week 4): −8.2
Change from Baseline in PASI Total Score, Mean (50 mg QD, Week 8): −11.41
Change from Baseline in PASI Total Score, Median (50 mg QD, Week 8): −11.85
Change from Baseline in PASI Total Score, LSMean (50 mg QD, Week 8): −11.3
Change from Baseline in PASI Total Score, Mean (50 mg QD, Week 12): −12.96
Change from Baseline in PASI Total Score, Median (50 mg QD, Week 12): −14.25
Change from Baseline in PASI Total Score, LSMean (50 mg QD, Week 12): −12.8
Change from Baseline in PASI Total Score, Mean (50 mg QD, Week 16): −14.56
